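These data come from cells grown in 96-well plates and exposed to compound for 48 hours at five concentrations. At the TGI there is no net growth.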

One test deals with SN12C renal. In words: DTP human tumour cell line panel, 48 h.
Usually TGI stands for the concentration at which net growth stops. `CC(=O)O[C@H]1CCC2[C@@H]3CCC4Nc5oncc5C[C@]4(C)C3CC[C@@]21C` (stereo partly drawn): the TGI is over 10 µM.

In turn, `Cc1ccc(NC(=O)CSc2nnc(-c3ccc(N=Cc4ccc(Cl)cc4)cc3)o2)cc1` showed a TGI of over 100 µM.

`COC1=CC2C(c3cc4ccccc4n3S(=O)(=O)c3ccccc3)CC1CN2C(=O)OCc1ccccc1` (stereo not drawn): the TGI was over 100 µM.

In the case of `Cc1c(O)c(OC2OC(CO)C(O)C(O)C2O)cc2c1CC[C@@H]1C2(C)C(=O)C[C@]2(C)[C@@H]([C@@](C)(O)C(=O)CCC(C)(C)O)[C@H](O)C[C@@]12C` (stereo partly drawn), the total growth inhibition concentration (TGI) is over 100 µM.

In the case of `CCC1CCc2c(c(=O)oc3c2cc(OC)c2cccc(OC)c23)C1` (stereo not drawn), the TGI is over 100 µM.

`Cn1c(=O)oc2cc(C(O)CN3CCN(Cc4ccccn4)CC3)c(Cl)cc21` (stereo not drawn) gave a TGI of over 100 µM.

With `COC(=O)[C@H](Cc1c[nH]c2ccccc12)NC(=O)c1ccc(CNC(=O)/C(C)=C/c2ccccc2)cc1`, the TGI is over 100 µM.

As to `C/C(=N/NC(=S)Nc1ccc(Cl)cc1)c1cccc(/C(C)=N\NC(=S)Nc2ccc(Cl)cc2)n1`, the TGI was over 100 µM.

As to `O=C(O/C=C\OC1CCCC1(c1ccccc1)c1ccccc1)c1ccccc1` (stereo not drawn), the total growth inhibition concentration (TGI) worked out at 13.7 µM.

Another test deals with SR leukemia. In words: DTP human tumour cell line panel, 48 h.
`S=c1[nH]c(=S)c2nnn(-c3ccccc3)c2[nH]1` displayed a TGI of over 100 µM.

On to `CC(C)CC(NC(=O)C(CI)Cc1ccccc1)C(=O)Nc1ccccc1` (stereo not drawn), for which the TGI was over 100 µM.

For the compound `Cc1cc(C2CC(O)C(CO)O2)c(F)cc1F` (stereo not drawn), the TGI is over 100 µM.

Consider `CC(=O)O[C@H]1CC[C@@]2(C)C(=CC[C@@H]3[C@@H]2CC[C@]2(C)NC(=O)/C(=C\c4ccccc4)C[C@@H]32)C1`, for which the TGI is over 100 µM.

In turn, `N#CC1=C(Nc2ccccc2)SC=C(c2ccccc2)NC1=NCc1ccccc1` yielded a TGI of 59.1 µM.

On to `CC(=O)O[C@H]1CCC2[C@@H]3CCC4Nc5oncc5C[C@]4(C)C3CC[C@@]21C` (stereo partly drawn), for which the TGI was over 10 µM.

As for `Cc1ccc(NC(=O)CSc2nnc(-c3ccc(N=Cc4ccc(Cl)cc4)cc3)o2)cc1`, the TGI is over 100 µM.

For the compound `Cc1c(O)c(OC2OC(CO)C(O)C(O)C2O)cc2c1CC[C@@H]1C2(C)C(=O)C[C@]2(C)[C@@H]([C@@](C)(O)C(=O)CCC(C)(C)O)[C@H](O)C[C@@]12C` (stereo partly drawn), the TGI was over 100 µM.

With `CCC1CCc2c(c(=O)oc3c2cc(OC)c2cccc(OC)c23)C1` (stereo not drawn), the TGI is over 100 µM.

`Cn1c(=O)oc2cc(C(O)CN3CCN(Cc4ccccn4)CC3)c(Cl)cc21` (stereo not drawn) registered a total growth inhibition concentration (TGI) of over 100 µM.

`COC(=O)[C@H](Cc1c[nH]c2ccccc12)NC(=O)c1ccc(CNC(=O)/C(C)=C/c2ccccc2)cc1` gave a TGI of over 100 µM.

On to `C/C(=N/NC(=S)Nc1ccc(Cl)cc1)c1cccc(/C(C)=N\NC(=S)Nc2ccc(Cl)cc2)n1`, for which the TGI is 7.25 µM.

The test system of another test is U251 CNS. In words: DTP human tumour cell line panel, 48 h.
As to `Fc1ccc(C(=C2CCN(CCc3ccc4[nH]c(=S)[nH]c4c3)CC2)c2ccc(F)cc2)cc1`, the concentration for total growth inhibition (TGI) was found to be 11.3 µM.

As to `S=c1[nH]c(=S)c2nnn(-c3ccccc3)c2[nH]1`, the TGI is over 100 µM.

Compound `CC(C)CC(NC(=O)C(CI)Cc1ccccc1)C(=O)Nc1ccccc1` (stereo not drawn) displayed a TGI of over 100 µM.

Take `Cc1cc(C2CC(O)C(CO)O2)c(F)cc1F` (stereo not drawn): the TGI is over 100 µM.

Consider `CC(=O)O[C@H]1CC[C@@]2(C)C(=CC[C@@H]3[C@@H]2CC[C@]2(C)NC(=O)/C(=C\c4ccccc4)C[C@@H]32)C1`, for which the TGI was found to be 37.6 µM.

Take `N#CC1=C(Nc2ccccc2)SC=C(c2ccccc2)NC1=NCc1ccccc1`: the TGI is over 100 µM.

`CNS(=O)(=O)NNS(=O)(=O)c1ccc(Br)cc1` displayed a TGI of over 100 µM.

Compound `CC(=O)O[C@H]1CCC2[C@@H]3CCC4Nc5oncc5C[C@]4(C)C3CC[C@@]21C` (stereo partly drawn) gave a TGI of over 10 µM.

Regarding `Cc1ccc(NC(=O)CSc2nnc(-c3ccc(N=Cc4ccc(Cl)cc4)cc3)o2)cc1`, the TGI was over 100 µM.

In the case of `COC1=CC2C(c3cc4ccccc4n3S(=O)(=O)c3ccccc3)CC1CN2C(=O)OCc1ccccc1` (stereo not drawn), the total growth inhibition concentration (TGI) was over 100 µM.

In turn, `Cc1c(O)c(OC2OC(CO)C(O)C(O)C2O)cc2c1CC[C@@H]1C2(C)C(=O)C[C@]2(C)[C@@H]([C@@](C)(O)C(=O)CCC(C)(C)O)[C@H](O)C[C@@]12C` (stereo partly drawn) had a TGI of over 100 µM.

As for `CCC1CCc2c(c(=O)oc3c2cc(OC)c2cccc(OC)c23)C1` (stereo not drawn), the TGI is over 100 µM.

Take `Cn1c(=O)oc2cc(C(O)CN3CCN(Cc4ccccn4)CC3)c(Cl)cc21` (stereo not drawn): the TGI was over 100 µM.

`COC(=O)[C@H](Cc1c[nH]c2ccccc12)NC(=O)c1ccc(CNC(=O)/C(C)=C/c2ccccc2)cc1` showed a TGI of over 100 µM.

`C/C(=N/NC(=S)Nc1ccc(Cl)cc1)c1cccc(/C(C)=N\NC(=S)Nc2ccc(Cl)cc2)n1` gave a TGI of 60.3 µM.

As to `O=C(O/C=C\OC1CCCC1(c1ccccc1)c1ccccc1)c1ccccc1` (stereo not drawn), the TGI was found to be 12.4 µM.

The next test relates to UACC-257 melanoma. In words: DTP human tumour cell line panel, 48 h.
With `Fc1ccc(C(=C2CCN(CCc3ccc4[nH]c(=S)[nH]c4c3)CC2)c2ccc(F)cc2)cc1`, the TGI was determined as 2.4 µM.

`S=c1[nH]c(=S)c2nnn(-c3ccccc3)c2[nH]1` gave a TGI of over 100 µM.

`CC(C)CC(NC(=O)C(CI)Cc1ccccc1)C(=O)Nc1ccccc1` (stereo not drawn) showed a TGI of over 100 µM.

In the case of `Cc1cc(C2CC(O)C(CO)O2)c(F)cc1F` (stereo not drawn), the total growth inhibition concentration (TGI) was over 100 µM.

Take `CC(=O)O[C@H]1CC[C@@]2(C)C(=CC[C@@H]3[C@@H]2CC[C@]2(C)NC(=O)/C(=C\c4ccccc4)C[C@@H]32)C1`: the TGI was 43.9 µM.

`CNS(=O)(=O)NNS(=O)(=O)c1ccc(Br)cc1` showed a TGI of over 100 µM.

`CC(=O)O[C@H]1CCC2[C@@H]3CCC4Nc5oncc5C[C@]4(C)C3CC[C@@]21C` (stereo partly drawn): the TGI was over 10 µM.

The compound `Cc1ccc(NC(=O)CSc2nnc(-c3ccc(N=Cc4ccc(Cl)cc4)cc3)o2)cc1` showed a TGI of over 100 µM.

`COC1=CC2C(c3cc4ccccc4n3S(=O)(=O)c3ccccc3)CC1CN2C(=O)OCc1ccccc1` (stereo not drawn) came in with a TGI of over 100 µM.

Turning to `Cc1c(O)c(OC2OC(CO)C(O)C(O)C2O)cc2c1CC[C@@H]1C2(C)C(=O)C[C@]2(C)[C@@H]([C@@](C)(O)C(=O)CCC(C)(C)O)[C@H](O)C[C@@]12C` (stereo partly drawn), the TGI was over 100 µM.

For the compound `CCC1CCc2c(c(=O)oc3c2cc(OC)c2cccc(OC)c23)C1` (stereo not drawn), the TGI was over 100 µM.

With `Cn1c(=O)oc2cc(C(O)CN3CCN(Cc4ccccn4)CC3)c(Cl)cc21` (stereo not drawn), the total growth inhibition concentration (TGI) was over 100 µM.

Turning to `COC(=O)[C@H](Cc1c[nH]c2ccccc12)NC(=O)c1ccc(CNC(=O)/C(C)=C/c2ccccc2)cc1`, the TGI is 33.5 µM.

On to `C/C(=N/NC(=S)Nc1ccc(Cl)cc1)c1cccc(/C(C)=N\NC(=S)Nc2ccc(Cl)cc2)n1`, for which the total growth inhibition concentration (TGI) was found to be 46.8 µM.

On to `O=C(O/C=C\OC1CCCC1(c1ccccc1)c1ccccc1)c1ccccc1` (stereo not drawn), for which the concentration for total growth inhibition (TGI) was 33 µM.

A further test deals with UO-31 renal. In words: DTP human tumour cell line panel, 48 h.
As to `Fc1ccc(C(=C2CCN(CCc3ccc4[nH]c(=S)[nH]c4c3)CC2)c2ccc(F)cc2)cc1`, the TGI came to 5.11 µM.

Compound `S=c1[nH]c(=S)c2nnn(-c3ccccc3)c2[nH]1` displayed a TGI of over 100 µM.

The compound `CC(C)CC(NC(=O)C(CI)Cc1ccccc1)C(=O)Nc1ccccc1` (stereo not drawn) displayed a TGI of over 100 µM.

Turning to `Cc1cc(C2CC(O)C(CO)O2)c(F)cc1F` (stereo not drawn), the TGI was over 100 µM.

`CC(=O)O[C@H]1CC[C@@]2(C)C(=CC[C@@H]3[C@@H]2CC[C@]2(C)NC(=O)/C(=C\c4ccccc4)C[C@@H]32)C1` had a TGI of 33.1 µM.

`N#CC1=C(Nc2ccccc2)SC=C(c2ccccc2)NC1=NCc1ccccc1`: the TGI is over 100 µM.

The compound `CNS(=O)(=O)NNS(=O)(=O)c1ccc(Br)cc1` gave a TGI of over 100 µM.

Take `CC(=O)O[C@H]1CCC2[C@@H]3CCC4Nc5oncc5C[C@]4(C)C3CC[C@@]21C` (stereo partly drawn): the concentration for total growth inhibition (TGI) was over 10 µM.

Compound `Cc1ccc(NC(=O)CSc2nnc(-c3ccc(N=Cc4ccc(Cl)cc4)cc3)o2)cc1` returned a TGI of over 100 µM.

For the compound `COC1=CC2C(c3cc4ccccc4n3S(=O)(=O)c3ccccc3)CC1CN2C(=O)OCc1ccccc1` (stereo not drawn), the TGI is over 100 µM.

The compound `Cc1c(O)c(OC2OC(CO)C(O)C(O)C2O)cc2c1CC[C@@H]1C2(C)C(=O)C[C@]2(C)[C@@H]([C@@](C)(O)C(=O)CCC(C)(C)O)[C@H](O)C[C@@]12C` (stereo partly drawn) yielded a TGI of over 100 µM.

On to `CCC1CCc2c(c(=O)oc3c2cc(OC)c2cccc(OC)c23)C1` (stereo not drawn), for which the TGI is over 100 µM.

The compound `Cn1c(=O)oc2cc(C(O)CN3CCN(Cc4ccccn4)CC3)c(Cl)cc21` (stereo not drawn) displayed a total growth inhibition concentration (TGI) of over 100 µM.

`COC(=O)[C@H](Cc1c[nH]c2ccccc12)NC(=O)c1ccc(CNC(=O)/C(C)=C/c2ccccc2)cc1` gave a TGI of over 100 µM.

`C/C(=N/NC(=S)Nc1ccc(Cl)cc1)c1cccc(/C(C)=N\NC(=S)Nc2ccc(Cl)cc2)n1` had a TGI of 53.2 µM.

`O=C(O/C=C\OC1CCCC1(c1ccccc1)c1ccccc1)c1ccccc1` (stereo not drawn): the concentration for total growth inhibition (TGI) is 3.84 µM.

Values taken from PubChem BioAssay (NCI).
